This note sets out measurements from patent US7868003B2, “Substituted 4-phenyltetrahydroisoquinolines, pharmaceutical compositions comprising them and therapeutic methods for their use” (Sanofi-Aventis, priority 2005, dated 2011).

SMILES strings stand for the structures. pIC50: −log10 of the molar value. Structures can show the parent of a compound that is named as a salt.

This assay deals with T1, sodium-proton exchanger subtype 3 (NHE3) (Homo sapiens, UniProt P48764).
T1 construct: expressed in transfected cells
T1 sequence (P48764 26-834): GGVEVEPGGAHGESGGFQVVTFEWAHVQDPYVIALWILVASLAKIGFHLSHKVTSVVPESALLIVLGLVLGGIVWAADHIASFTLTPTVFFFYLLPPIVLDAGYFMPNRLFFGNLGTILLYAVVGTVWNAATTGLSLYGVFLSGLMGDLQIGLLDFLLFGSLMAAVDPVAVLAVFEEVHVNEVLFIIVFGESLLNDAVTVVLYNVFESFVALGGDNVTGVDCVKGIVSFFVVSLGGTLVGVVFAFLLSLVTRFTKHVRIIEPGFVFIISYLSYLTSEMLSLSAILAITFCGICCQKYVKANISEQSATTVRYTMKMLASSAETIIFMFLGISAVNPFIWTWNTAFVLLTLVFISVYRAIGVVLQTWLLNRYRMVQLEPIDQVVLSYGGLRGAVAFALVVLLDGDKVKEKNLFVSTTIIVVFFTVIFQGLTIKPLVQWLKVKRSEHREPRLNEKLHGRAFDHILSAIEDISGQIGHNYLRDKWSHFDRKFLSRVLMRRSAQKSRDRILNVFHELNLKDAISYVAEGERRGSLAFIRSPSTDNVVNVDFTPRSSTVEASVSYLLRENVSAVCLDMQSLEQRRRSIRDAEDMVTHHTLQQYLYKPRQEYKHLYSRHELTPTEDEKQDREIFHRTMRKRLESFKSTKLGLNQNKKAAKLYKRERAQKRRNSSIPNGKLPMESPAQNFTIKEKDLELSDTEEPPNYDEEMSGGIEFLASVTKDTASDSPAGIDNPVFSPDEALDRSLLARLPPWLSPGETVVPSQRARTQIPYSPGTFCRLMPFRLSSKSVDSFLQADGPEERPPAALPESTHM
The experiment in a line: recovery of intracellular pH (pHi) of LAP1 cells stably expressing NHE3 after acidification (BCECF, FLIPR). The assay is classed as cell-based. Conditions: pH recovery in percent of maximum recovery, XLFit, read-out: IC50 (inhibitory action on the NHE3). The protocol:
In this test, the recovery in the intracellular pH (pHi) of LAP1 cells, which stably express the sodium-proton exchanger subtype 3 (NHE3), after an acidification was determined. This recovery sets in even under bicarbonate-free conditions in the case of functioning NHE3. To this end, the pHi was determined with the pH-sensitive fluorescent dye BCECF (Molecular Probes, Eugene, Oreg., USA; the precursor BCECF-AM is used). The cells were first incubated with BCECF (5 μM BCECF-AM) in NH4Cl buffer (NH4Cl buffer: 115 mM cholineCl, 20 mM NH4Cl, 5 mM KCl, 1 mM CaCl2, 1 mM MgCl2, 20 mM Hepes, 5 mM glucose; a pH of 7.4 is established with 1 M KOH). The intracellular acidification was induced by washing the cells incubated in NH4Cl buffer with NH4Cl-free buffer (133.8 mM choline chloride, 4.7 mM KCl, 1.25 mM CaCl2, 1.25 mM MgCl2, 0.97 mM K2HPO4, 0.23 mM KH2PO4, 5 mM Hepes, 5 mM glucose; a pH of 7.4 is established with 1 M KOH). After the washing operation, 90 μl of the NH4Cl-free buffer were left on the cells. The pH recovery was started by the addition of 90 μl of Na^+-containing buffer (133.8 mM NaCl, 4.7 mM KCl, 1.25 mM CaCl2, 1.25 mM MgCl2, 0.97 mM Na2HPO4, 0.23 mM NaH2PO4, 10 mM Hepes, 5 mM glucose; a pH of 7.4 is established with 1 M NaOH) in the analytical instrument (FLIPR, “Fluorometric Imaging Plate Reader”, Molecular Devices, Sunnyvale, Calif., USA). The BCECF fluorescence was determined at an excitation wavelength of 498 nm and the FLIPR emission filter 1 (band gap from 510 to 570 nm). The subsequent changes in fluorescence were registered for two minutes as a measure of the pH recovery. For the calculation of the NHE3-inhibitory potential of the tested substances, the cells were tested first in buffers in which full pH recovery, or none at all, took place. For full pH recovery (100%), the cells were incubated in Na^+-containing buffer (see above), and Na^+-free buffer for the determination of the 0% value (see above). The substances to be tested were made up in Na^+-containing buffer. The recovery in the intracellular pH at each tested concentration of a substance was expressed in percent of the maximum recovery. From the percentages of the pH recovery, the IC50 value of the particular substance for the NHE3 was calculated by means of the program XLFit (idbs, Surrey, UK).
One may read the pIC50 as the negative decadic logarithm of the IC50, by convention in mol/L. As for `CSCCC1NC(=O)N(c2ccccc2[C@@H]2CN(C)Cc3c(Cl)cc(Cl)cc32)C1=O` (mixture of isomers) [Example 57, (R and S)-3-[2-((R)-6,8-Dichloro-2-methyl-1,2,3,4-tetrahydroisoquinolin-4-yl)phenyl]-5-(2-methylsulfanylethyl)imidazolidine-2,4-dione trifluoroacetic acid salt], the pIC50 was 5.85.

For the compound `CN1Cc2c(Cl)cc(Cl)cc2[C@H](c2cccc(N3C(=O)CNC3=O)c2)C1` [Example 4, 3-[3-((S)-6,8-Dichloro-2-methyl-1,2,3,4-tetrahydroisoquinolin-4-yl)phenyl]-imidazolidine-2,4-dione hydrochloride], the pIC50 is 6.89.

On to `CN1Cc2c(Cl)cc(Cl)cc2[C@H](c2ccccc2N2C(=O)CCC2=O)C1` [Example 7, 1-[2-((R)-6,8-Dichloro-2-methyl-1,2,3,4-tetrahydroisoquinolin-4-yl)phenyl]-pyrrolidine-2,5-dione hydrochloride], for which the negative logarithm of the IC50 (pIC50) is 7.41.

Regarding `CN1Cc2c(Cl)cc(Cl)cc2C(c2ccc(N3CCNS3(=O)=O)cc2)C1` (stereo not drawn) [Example 8, 6,8-Dichloro-4-[4-(1,1-dioxo-1-λ^6-[1,2,5]thiadiazolidin-2-yl)phenyl]-2-methyl-1,2,3,4-tetrahydroisoquinoline], the pIC50 was 5.59.

For `CN1Cc2c(Cl)cc(Cl)cc2[C@H](c2cccc(N3C(=O)C=CC3=O)c2)C1` [Example 10], the pIC50 is 7.33.

With `CN1Cc2c(Cl)cc(Cl)cc2[C@H](c2ccc(N3C(=O)CCC3=O)cc2)C1` [Example 14], the pIC50 was 6.92.

Regarding `CN1Cc2c(Cl)cc(Cl)cc2[C@H](c2ccc(N3C(=O)CCCC3=O)cc2)C1` [Example 16], the pIC50 was 6.65.

With `CC1CC(C)C(=O)N(c2ccccc2[C@@H]2CN(C)Cc3c(Cl)cc(Cl)cc32)C1=O` (stereo partly drawn) [Example 29], the pIC50 is 5.92.

Turning to `CN1Cc2c(Cl)cc(Cl)cc2[C@@H](c2ccccc2N2C(=O)CCC2=O)C1` [Example 34], the pIC50 was 4.53.

Regarding `CN1Cc2c(Cl)cc(Cl)cc2[C@H](c2ccccc2N2CCCC2=O)C1` [Example 35, 1-[2-((R)-6,8-Dichloro-2-methyl-1,2,3,4-tetrahydroisoquinolin-4-yl)phenyl]-pyrrolidin-2-one trifluoroacetate], the pIC50 is 7.09.

Turning to `CN1Cc2c(Cl)cc(Cl)cc2[C@H](c2cccc(N3CCCCC3=O)c2)C1` [Example 38, 1-[3-((S)-6,8-Dichloro-2-methyl-1,2,3,4-tetrahydroisoquinolin-4-yl)phenyl]-piperidin-2-one], the pIC50 was 6.34.

As for `CN1Cc2c(Cl)cc(Cl)cc2[C@H](c2ccccc2-n2cc[nH]c2=O)C1` [Example 40, 1-[2-((R)-6,8-Dichloro-2-methyl-1,2,3,4-tetrahydroisoquinolin-4-yl)phenyl]-1,3-dihydroimidazol-2-one hydrochloride], the negative logarithm of the IC50 (pIC50) was 6.88.

With `CN1Cc2c(Cl)cc(Cl)cc2[C@H](c2ccccc2N2C(=O)CSC2=O)C1` [Example 42, 3-[2-((R)-6,8-Dichloro-2-methyl-1,2,3,4-tetrahydroisoquinolin-4-yl)phenyl]-thiazolidine-2,4-dione], the pIC50 was 7.16.

In the case of `CN1Cc2c(Cl)cc(Cl)cc2[C@H](c2ccccc2N2C(=O)COC2=O)C1` [Example 43, 3-[2-((R)-6,8-Dichloro-2-methyl-1,2,3,4-tetrahydroisoquinolin-4-yl)phenyl]-oxazolidine-2,4-dione], the negative-log IC50 (pIC50) was 7.31.

Take `CN1Cc2c(Cl)cc(Cl)cc2[C@H](c2ccccc2N2C(=O)COCC2=O)C1` [Example 44, 4-[2-((R)-6,8-Dichloro-2-methyl-1,2,3,4-tetrahydroisoquinolin-4-yl)phenyl]-morpholine-3,5-dione trifluoroacetic acid salt]: the negative logarithm of the IC50 (pIC50) was 6.66.

Consider `CN1Cc2c(Cl)cc(Cl)cc2[C@H](c2ccccc2N2CCOC2=O)C1` [Example 46, 3-[2-((R)-6,8-Dichloro-2-methyl-1,2,3,4-tetrahydroisoquinolin-4-yl)phenyl]-oxazolidin-2-one], for which the pIC50 is 6.66.

`CN1Cc2c(Cl)cc(Cl)cc2[C@H](c2ccccc2N2CCCS2(=O)=O)C1` [Example 51, (R)-6,8-Dichloro-4-[2-(1,1-dioxo-1-λ^6-isothiazolidin-2-yl)phenyl]-2-methyl-1,2,3,4-tetrahydroisoquinoline hydrochloride]: the pIC50 was 6.85.

Turning to `O=C1CCC(=O)N1c1ccccc1[C@@H]1CNCc2c(Cl)cc(Cl)cc21` [Example 52, 1-[2-((R)-6,8-Dichloro-1,2,3,4-tetrahydroisoquinolin-4-yl)phenyl]-pyrrolidine-2,5-dione trifluoroacetic acid salt], the pIC50 was 4.91.

`CN1CC(=O)N(c2ccccc2[C@@H]2CN(C3CC3)Cc3c(Cl)cc(Cl)cc32)C1=O` [Example 55, 3-[2-((R)-6,8-Dichloro-2-cyclopropyl-1,2,3,4-tetrahydroisoquinolin-4-yl)-phenyl]-1-methylimidazolidine-2,4-dione hydrochloride]: the pIC50 was 6.92.

`CC(C)CC1NC(=O)N(c2ccccc2[C@@H]2CN(C)Cc3c(Cl)cc(Cl)cc32)C1=O` (stereo partly drawn) [Example 58]: the negative logarithm of the IC50 (pIC50) is 5.13.

Regarding `CN1Cc2c(Br)cc(Cl)cc2C(c2ccccc2N2CCCC2=O)C1` (stereo not drawn) [Example 64, 1-[2-(8-Bromo-6-chloro-2-methyl-1,2,3,4-tetrahydroisoquinolin-4-yl)-phenyl]pyrrolidin-2-one], the pIC50 is 6.60.
